In patent US11214563B2 (JANSSEN PHARMACEUTICA NV, priority 2019, dated 2022):

These molecules were tested against human GluN1/GluN2B NMDA receptors (Homo sapiens (Human), UniProt Q05586+Q13224) (assay: Cell-based calcium flux (FLIPR) assay on cloned human NR1/NR2B ion channels expressed in mammalian cells). Conditions: standard assay, glutamate ~EC40, 10 μM glycine.
Method: Effects of Test Articles on Cloned Human NR1/NR2B Ion Channels Expressed in Mammalian Cells
NMDA receptors are ion channels that are highly permeable to Ca^2+ ions, rendering it possible to monitor NMDA receptor function using cell-based calcium flux assay. In this assay, co-agonists glutamate and glycine are added to cells heterologously expressing human GluN1/GluN2B NMDA receptors to initiate cellular Ca^2+ influx. The time course of the changes in intracellular calcium is measured using a fluorescent dye and a FLIPR (Fluorometric Imaging Plate Reader) device.
Twenty four hours before measurements, the expression of the NMDA receptors in the stable cell line is induced with Tet-On inducible system in the presence of a non-selective NMDA receptor blocker. On the day of the experiment, cell culture media is carefully washed and the cells are loaded with Calcium 5 Dye Kit (Molecular Devices) in dye loading buffer containing 137 mM NaCl, 4 mM KCl, 2 mM CaCl2), 0.5 mM MgCl2(standard assay) or 1.5 mM MgCl2 (HTS assay), 10 mM HEPES and 5 mM D-glucose; pH 7.4. After 1 h incubation at the room temperature, the dye is washed away with the assay buffer (137 mM NaCl (standard assay) or 150 mM (HTS assay), 4 mM KCl (standard assay) or 3 mM (HTS assay), 2 mM CaCl2), 0.01 mM EDTA, 10 mM HEPES and 5 mM D-glucose; pH 7.4) In the FLIPR TETRA reader, various concentrations of the test compounds are added to the cells for 5 min while fluorescence is monitored to detect potential agonist activity. Next, co-agonists, glutamate and glycine are added for another 5 minutes. The concentration of glutamate corresponding to ˜EC40 (standard assay) or EC40 (HTS assay) is used to maximize the assay's signal window and ability to detect NMDA receptor antagonists and negative allosteric modulators. A saturating concentration (10 μM) of glycine is also present in the assay. A non-selective NMDA receptor antagonist, (+)MK-801 is used as a positive control for antagonist activity. The fluorescent signal in the presence of test compounds is quantified and normalized to the signal defined by the appropriate control wells.

human GluN1/GluN2B NMDA receptors, sequence (Q13224 27-1484, other chains not shown): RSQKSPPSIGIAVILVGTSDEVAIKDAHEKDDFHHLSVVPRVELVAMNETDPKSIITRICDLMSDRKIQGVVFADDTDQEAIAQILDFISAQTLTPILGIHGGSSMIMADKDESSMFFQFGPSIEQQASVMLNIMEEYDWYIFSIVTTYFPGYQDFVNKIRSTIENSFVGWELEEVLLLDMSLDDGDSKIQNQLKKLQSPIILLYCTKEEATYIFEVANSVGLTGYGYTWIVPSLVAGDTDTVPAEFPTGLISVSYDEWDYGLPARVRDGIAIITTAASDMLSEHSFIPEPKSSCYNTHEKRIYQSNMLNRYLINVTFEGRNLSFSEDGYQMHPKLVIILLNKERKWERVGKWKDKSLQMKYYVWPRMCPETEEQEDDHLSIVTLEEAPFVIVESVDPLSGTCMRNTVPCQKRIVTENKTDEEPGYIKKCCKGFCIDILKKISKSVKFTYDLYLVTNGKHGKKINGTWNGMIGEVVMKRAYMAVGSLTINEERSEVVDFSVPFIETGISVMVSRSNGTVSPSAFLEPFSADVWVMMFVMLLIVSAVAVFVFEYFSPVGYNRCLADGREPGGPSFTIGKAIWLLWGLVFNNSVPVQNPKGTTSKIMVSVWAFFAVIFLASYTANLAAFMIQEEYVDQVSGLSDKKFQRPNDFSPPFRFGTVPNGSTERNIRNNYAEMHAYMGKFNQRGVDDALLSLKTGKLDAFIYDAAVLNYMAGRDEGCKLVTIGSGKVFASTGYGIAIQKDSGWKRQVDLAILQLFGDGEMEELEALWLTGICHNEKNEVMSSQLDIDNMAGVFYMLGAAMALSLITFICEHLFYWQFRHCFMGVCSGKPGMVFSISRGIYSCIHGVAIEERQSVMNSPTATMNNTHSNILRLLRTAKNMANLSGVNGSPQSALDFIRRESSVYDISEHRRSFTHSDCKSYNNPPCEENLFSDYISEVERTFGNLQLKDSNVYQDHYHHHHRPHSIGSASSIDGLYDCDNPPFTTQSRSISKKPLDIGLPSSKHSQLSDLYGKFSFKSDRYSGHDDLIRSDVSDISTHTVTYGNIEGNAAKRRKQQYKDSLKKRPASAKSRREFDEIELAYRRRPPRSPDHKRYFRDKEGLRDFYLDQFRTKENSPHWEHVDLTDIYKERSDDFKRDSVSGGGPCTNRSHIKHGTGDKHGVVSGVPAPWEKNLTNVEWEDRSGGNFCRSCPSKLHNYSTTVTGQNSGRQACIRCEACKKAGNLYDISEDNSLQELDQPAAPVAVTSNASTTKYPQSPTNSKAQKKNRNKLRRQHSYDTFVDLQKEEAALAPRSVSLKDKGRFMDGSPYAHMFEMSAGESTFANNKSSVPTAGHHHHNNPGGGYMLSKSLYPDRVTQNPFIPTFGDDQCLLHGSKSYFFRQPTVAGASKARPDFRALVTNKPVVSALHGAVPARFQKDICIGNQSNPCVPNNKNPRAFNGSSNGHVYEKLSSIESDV

CN(C)C(=O)Cn1nc(F)c2ncc(-c3ccc(F)c(C(F)F)c3)nc21 [Example 11, 2-[6-[3-(Difluoromethyl)-4-fluoro-phenyl]-3-fluoro-pyrazolo[3,4-b]pyrazin-1-yl]-N,N-dimethyl-acetamide] and CN(C)C(=O)Cn1ncc2ncc(-c3ccc(F)c(OC(F)F)c3)nc21 [Example 16, 2-[6-[3-(Difluoromethoxy)-4-fluoro-phenyl]pyrazolo[3,4-b]pyrazin-1-yl]-N,N-dimethyl-acetamide] are within 1.5-fold of each other in IC50: 59 nM for the first, 72 nM for the second.

First: CN(C)C(=O)Cn1ncc2ncc(-c3ccc(Cl)c(OC(F)F)c3)nc21 [Example 18, 2-[6-[4-Chloro-3-(difluoromethoxy)phenyl]pyrazolo[3,4-b]pyrazin-1-yl]-N,N-dimethyl-acetamide]
Second: CN(C)C(=O)Cn1ncc2ncc(-c3ccc(C(C)(F)F)cc3)nc21 [Example 53, 2-(6-(4-(1,1-Difluoroethyl)phenyl)-1H-pyrazolo[3,4-b]pyrazin-1-yl)-N,N-dimethylacetamide]
The IC50 of the first is lower: 64 nM for the first, > 3000 nM for the second.

First: Cc1c(F)cc(-c2cnc3cnn(CC(=O)N(C)C)c3n2)cc1F [Example 20, 2-[6-(3,5-Difluoro-4-methyl-phenyl)pyrazolo[3,4-b]pyrazin-1-yl]-N,N-dimethyl-acetamide]
Second: CN(C)C(=O)Cn1ncc2ncc(-c3cc(F)c(F)c(F)c3)nc21 [Example 22, N,N-Dimethyl-2-[6-(3,4,5-trifluorophenyl)pyrazolo[3,4-b]pyrazin-1-yl]acetamide]
The IC50 of the first is 1.9-fold higher: 907 nM for the first, 489 nM for the second.

CC(F)(F)c1cc(-c2cnc3cnn(CC(=O)N4CCC4)c3n2)ccc1F [Example 27, 1-(Azetidin-1-yl)-2-[6-[3-(1,1-difluoroethyl)-4-fluoro-phenyl]pyrazolo[3,4-b]pyrazin-1-yl]ethanone] and CC1CN(C(=O)Cn2ncc3ncc(-c4ccc(F)c(C(F)F)c4)nc32)C1 [Example 30, 2-[6-[3-(Difluoromethyl)-4-fluoro-phenyl]pyrazolo[3,4-b]pyrazin-1-yl]-1-(3-methylazetidin-1-yl)ethanone] are within 1.5-fold of each other in IC50: 126 nM for the first, 122 nM for the second.

Compared with Cc1nnc(Cn2ncc3ncc(-c4ccc(F)c(C(F)F)c4)nc32)o1 [Example 40, 2-[[6-[3-(Difluoromethyl)-4-fluoro-phenyl]pyrazolo[3,4-b]pyrazin-1-yl]methyl]-5-methyl-1,3,4-oxadiazole], N#Cc1cncc(Cn2ncc3ncc(-c4ccc(F)c(C(F)F)c4)nc32)c1 [Example 45, 5-[[6-[3-(Difluoromethyl)-4-fluoro-phenyl]pyrazolo[3,4-b]pyrazin-1-yl]methyl]pyridine-3-carbonitrile] is 1.8-fold higher in IC50: 158 nM for the first, 285 nM for the second.

In the case of O=C1NCC(Cn2ncc3ncc(-c4ccc(F)c(OC(F)F)c4)nc32)O1 (centres unmarked) [Example 51, 5-((6-(3-(Difluoromethoxy)-4-fluorophenyl)-1H-pyrazolo[3,4-b]pyrazin-1-yl)methyl)oxazolidin-2-one], the IC50 is reported as > 3000 nM.
